Measurements as given in US10183000B1, “2, 4-dinitroanilino-benzoic acid: novel insulinotropic agent for the treatment of diabetes” (priority 2017, dated 2019).
Entries after “also recorded” stand apart in the source; their conditions may differ.

Legend:
[1] = tested on: STZ-induced diabetic rats; assay: Fasting blood glucose in STZ-induced diabetic rats, eight weeks of treatment; format: in vivo, Wistar rats
Experimental: Animals: Eight weeks old Wistar rats (n=54; 24 males: 30 females) weighing 160-180 g were used in the study. During the eight weeks of the experiment, animals were kept in the animal house with a controlled temperature (25±2°C.), and 12 hours light/dark cycle. Water and standardized food access were provided at libitum.
Diabetes Induction: Prior to induction of diabetes, animals were given a high-fat diet (40% fat content) for two weeks. Diabetes was induced by administrating intraperitoneally a single dose of freshly prepared solution of streptozotocin (45 mg/kg) (Wako, Richmond, USA) in a chilled 0.1 M citrate buffer, pH 4.5. The normal control rats were injected with citrate buffer alone. Fasting blood glucose levels (FBG) were measured after 48 hours, and one week of diabetes induction with a blood glucose analyzer (Accu-Chek®, Roche, Mannheim, Germany). […]
Blood glucose levels and body weight of each group were monitored on weekly basis under fasting states. […] Serum- and isolated pancreatic insulin contents were measured by rat insulin ELISA kit (Amersham Biosciences, N.J., USA).
Statistical Analysis: All results are expressed as means ±SEM. The significance of differences between groups was determined by using one-way ANOVA, and multiple comparisons were performed by Tukey Alpha, post hoc analysis. […]

[2] = tested on: STZ-induced diabetic rats; assay: Dose optimization of anti-diabetic effect in STZ-induced diabetic rats; format: in vivo, Wistar rats; details: 25, 50, and 100 mg/kg in STZ-induced diabetic rats
Experimental: (§1) Diabetes Induction: Prior to induction of diabetes, animals were given a high-fat diet (40% fat content) for two weeks. Diabetes was induced by administrating intraperitoneally a single dose of freshly prepared solution of streptozotocin (45 mg/kg) (Wako, Richmond, USA) in a chilled 0.1 M citrate buffer, pH 4.5. The normal control rats were injected with citrate buffer alone. Fasting blood glucose levels (FBG) were measured after 48 hours, and one week of diabetes induction with a blood glucose analyzer (Accu-Chek®, Roche, Mannheim, Germany). Rats with FBG levels of ≥200 mg/dL were considered diabetic, and randomly divided into diabetic and a compound 1-treated (100 mg/kg) groups. […] This indicated the safety of doses up to 100 mg/kg of body weight.

[3] = tested on: STZ-induced diabetic rats; assay: Mortality on daily oral administration for eight weeks; format: in vivo, Wistar rats; details: doses up to 100 mg/kg of body weight
Experimental: as §1

[4] = tested on: STZ-induced diabetic rats; assay: Serum insulin levels by rat insulin ELISA; format: in vivo, Wistar rats; details: 100 mg/kg, 8 weeks, vs STZ-induced diabetic group
Experimental: (§2) Blood glucose levels and body weight of each group were monitored on weekly basis under fasting states. Blood samples were drawn from tail vein to measure the glucose levels by blood glucose analyzer. After 8 weeks of the experiments, rats under 8 hours of fasting states were anaesthetized by phenobarbital sodium (60 mg/kg), and blood samples were collected via cardiopuncture. Serum was stored at −80° C. until measurement of the insulin levels. A part of cryopreserved isolated pancreas was used for the measurement of pancreatic insulin contents. Briefly, pancreas were homogenized in an acid-ethanol solution (75% ethanol, 1.5% HCl, and 23.5% deionized water), and the mixture was kept for 4 hours at 4° C. to extract the insulin. Serum- and isolated pancreatic insulin contents were measured by rat insulin ELISA kit (Amersham Biosciences, N.J., USA).

[5] = tested on: STZ-induced diabetic rats; assay: Pancreatic insulin contents by acid-ethanol extraction and rat insulin ELISA; format: in vivo, Wistar rats; details: 100 mg/kg, 8 weeks, vs STZ-induced diabetic group
Experimental: as §2

[6] = tested on: pancreatic islet in diabetic Wistar rats; assay: Islets histopathology (H&E) and insulin immunohistochemistry; format: in vivo; details: 100 mg/kg
Experimental: Procedure: Pancreata isolated from rats were fixed with 3.7% neutral buffered formalin and embedded in paraffin. The 5 μm thick sections (n=6/group) were stained with eosin and hematoxilin, and evaluated for islets histopathology, after performing deparaffinization and dehydration steps. For immunohistochemistry analysis, briefly the antigen was first retrieved by heating for 40 min at 90° C. in 5.0 mM citrate buffer, pH 4.5. Prior to primary antibody treatment, each section was then cooled at room temperature, and incubated with 1× rotti immunoblocking solution (Carl Roth, Karlsruhe, Germany). The sections were immunostained with mouse K36AC10 monoclonal anti-insulin antibody (1:2,000) (Sigma Aldrich, St. Louis, Mo., USA) for 1 hour in a dark humidified chamber at 37° C. The sections were then immunostained with Alexa Fluor 594 donkey anti-mouse IgM secondary antibody (1:200)(Jackson ImmunoResearch, Pa., USA) for 1 hour in a dark chamber at 37° C. for detention. Finally, beta cells nuclei were stained with DAPI (1:5,000) (Sigma Aldrich, St, Louis, Mo., USA). The stained sections were observed under Nikon 90i microscope, equipped with DXM-1200 digital camera (Nikon, Tokyo, Japan).

[7] = tested on: pancreatic islet in diabetic Wistar rats; assay: Quantification of pancreatic islet area and beta-cell number; format: in vivo; details: 100 mg/kg, per pancreas section, n=5
Text: Procedure: The pancreatic islet area (μ2) and the beta-cell number were quantified from overlapped images of pancreas that was immunostained with insulin and DAPI in all islet sections using NIS-Elements image analysis software AR 3.0. The pancreatic islet area (μ2) and the beta-cell number per section were enumerated by using five sections per pancreas, and five rats from each group.

## O=C(O)c1ccccc1Nc1ccc([N+](=O)[O-])cc1[N+](=O)[O-] [Compound 1, 2,4-Dinitroanilino-benzoic acid]
[1]; 100 mg/kg of body weight, long term treatment, vs untreated diabetic group
  FBG levels (in words): significant reduction in FBG levels
[1]; STZ-induced diabetic rats, 100 mg/kg, eight weeks of treatment, mean ± SE, 06 rats, *P<0.05 vs diabetic group
  FBG: 126 ± 8* mg/dL
[2]
  anti-diabetic effect, dose optimization: dose dependent anti-diabetic effect was observed with a significant effect at 100 mg/kg
[3]
  mortality: without significant mortality
[4]
  serum insulin levels: marked increase in serum insulin levels
[5]
  pancreatic insulin contents: increase in pancreatic insulin contents; also recorded: significantly restored
[6]; H&E staining, STZ-induced diabetic rats
  degenerative changes / islet atrophy (histopathology): markedly attenuated the STZ-induced islet atrophy; also recorded: significantly attenuated
[6]; anti-insulin immunostaining, vs STZ-induced diabetic group
  immunofluorescent staining for insulin / residual beta-cell function: increased immunoreactivity for insulin; also recorded: restored the residual beta-cell function
[7]
  beta-cell number: significantly restored
  islet area: significantly restored
